In ChEMBL document CHEMBL3860098, “Sulfamide as Zinc Binding Motif in Small Molecule Inhibitors of Activated Thrombin Activatable Fibrinolysis Inhibitor (TAFIa)” (J Med Chem, 2016):

Tests used:
Carboxypeptidase B2 = target: T1, Carboxypeptidase B2 (Homo sapiens, UniProt Q96IY4)
T1 sequence (Q96IY4 whole entry): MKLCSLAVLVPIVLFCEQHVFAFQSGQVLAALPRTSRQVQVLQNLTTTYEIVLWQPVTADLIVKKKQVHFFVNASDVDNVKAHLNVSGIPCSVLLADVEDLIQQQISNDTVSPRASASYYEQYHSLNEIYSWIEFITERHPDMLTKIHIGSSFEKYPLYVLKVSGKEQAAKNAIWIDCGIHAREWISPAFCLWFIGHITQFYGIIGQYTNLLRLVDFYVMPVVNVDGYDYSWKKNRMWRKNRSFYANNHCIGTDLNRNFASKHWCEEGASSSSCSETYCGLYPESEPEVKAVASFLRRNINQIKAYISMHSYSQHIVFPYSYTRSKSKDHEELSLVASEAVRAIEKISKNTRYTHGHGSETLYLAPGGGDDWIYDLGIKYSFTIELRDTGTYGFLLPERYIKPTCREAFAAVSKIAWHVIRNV
Description: Inhibition of activated human plasma TAFI incubated for 15 mins by chromogenic assay

[1] = target: Plasma kallikrein (Homo sapiens) (UniProt P03952); conditions: 100 uM
Description: Inhibition of KLKB1 (unknown origin) at 100 uM relative to control

[2] = target: Plasminogen (Homo sapiens) (UniProt P00747); assay: Inhibition of plasmin (unknown origin) at 100 uM relative to control
Homo sapiens [3] = species on record: Homo sapiens; assay: Inhibition of trypsin (unknown origin) at 100 uM relative to control
[4] = target: Tissue-type plasminogen activator (Homo sapiens) (UniProt P00750); assay: Inhibition of tPA (unknown origin) at 100 uM relative to control
[5] = target: T2, Coagulation factor VII (Homo sapiens) (UniProt P08709); assay: Inhibition of factor 7a (unknown origin) at 100 uM relative to control
T2 sequence (whole entry): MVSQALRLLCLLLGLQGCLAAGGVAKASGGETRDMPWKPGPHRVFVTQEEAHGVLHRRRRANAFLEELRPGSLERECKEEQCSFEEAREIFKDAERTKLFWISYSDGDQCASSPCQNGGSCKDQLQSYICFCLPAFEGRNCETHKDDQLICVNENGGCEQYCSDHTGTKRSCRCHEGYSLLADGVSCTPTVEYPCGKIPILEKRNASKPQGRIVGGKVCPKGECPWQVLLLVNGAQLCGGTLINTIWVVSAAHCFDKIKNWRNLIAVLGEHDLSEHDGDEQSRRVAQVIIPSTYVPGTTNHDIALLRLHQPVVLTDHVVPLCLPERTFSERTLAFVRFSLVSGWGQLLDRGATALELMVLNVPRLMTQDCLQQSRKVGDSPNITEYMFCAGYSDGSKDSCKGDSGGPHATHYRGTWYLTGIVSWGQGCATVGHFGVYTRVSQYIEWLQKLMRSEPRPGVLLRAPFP

[6] = target: T3, Complement C1s subcomponent (Homo sapiens) (UniProt P09871); assay: Inhibition of C1s (unknown origin) at 100 uM relative to control
T3 sequence (whole entry): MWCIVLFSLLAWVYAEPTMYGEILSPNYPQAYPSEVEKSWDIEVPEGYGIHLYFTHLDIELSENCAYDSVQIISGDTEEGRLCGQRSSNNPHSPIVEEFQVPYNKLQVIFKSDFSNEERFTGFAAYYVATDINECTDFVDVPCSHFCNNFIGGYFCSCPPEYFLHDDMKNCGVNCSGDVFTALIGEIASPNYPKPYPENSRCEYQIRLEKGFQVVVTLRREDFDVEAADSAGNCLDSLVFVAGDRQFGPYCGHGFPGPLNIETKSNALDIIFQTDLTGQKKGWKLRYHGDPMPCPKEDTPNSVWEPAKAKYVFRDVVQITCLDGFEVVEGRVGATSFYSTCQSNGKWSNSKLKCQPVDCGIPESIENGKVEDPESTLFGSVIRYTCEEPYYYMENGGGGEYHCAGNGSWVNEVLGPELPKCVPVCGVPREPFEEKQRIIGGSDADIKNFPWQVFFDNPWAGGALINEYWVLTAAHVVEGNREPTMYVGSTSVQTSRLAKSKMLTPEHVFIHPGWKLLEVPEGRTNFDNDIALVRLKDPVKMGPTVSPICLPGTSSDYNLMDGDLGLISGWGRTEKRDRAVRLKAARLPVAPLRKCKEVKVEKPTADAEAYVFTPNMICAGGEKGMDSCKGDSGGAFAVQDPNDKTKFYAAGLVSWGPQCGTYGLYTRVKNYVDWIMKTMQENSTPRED

[7] = target: T4, Coagulation factor XII (Homo sapiens) (UniProt P00748); assay: Inhibition of factor 12a (unknown origin) at 100 uM relative to control
T4 sequence (whole entry): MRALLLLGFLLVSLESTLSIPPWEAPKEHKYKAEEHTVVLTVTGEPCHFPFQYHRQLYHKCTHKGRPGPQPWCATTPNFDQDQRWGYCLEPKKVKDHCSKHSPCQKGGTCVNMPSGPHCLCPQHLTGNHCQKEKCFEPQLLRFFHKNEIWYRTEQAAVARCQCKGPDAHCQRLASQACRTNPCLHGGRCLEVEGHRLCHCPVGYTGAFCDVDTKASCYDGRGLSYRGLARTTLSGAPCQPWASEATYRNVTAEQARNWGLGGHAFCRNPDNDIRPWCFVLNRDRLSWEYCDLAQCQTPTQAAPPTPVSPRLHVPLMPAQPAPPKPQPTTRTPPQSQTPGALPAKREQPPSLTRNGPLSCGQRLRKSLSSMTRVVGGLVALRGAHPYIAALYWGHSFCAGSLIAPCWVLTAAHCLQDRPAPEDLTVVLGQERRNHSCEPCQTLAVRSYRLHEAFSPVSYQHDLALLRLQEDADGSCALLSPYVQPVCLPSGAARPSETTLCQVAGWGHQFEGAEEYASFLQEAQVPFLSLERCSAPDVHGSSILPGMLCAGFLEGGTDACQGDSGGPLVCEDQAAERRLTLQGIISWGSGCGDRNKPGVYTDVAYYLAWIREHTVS

[8] = target: Coagulation factor X (Homo sapiens) (UniProt P00742); assay: Inhibition of factor 10a (unknown origin) at 100 uM relative to control
Homo sapiens [9] = species on record: Homo sapiens; assay: Inhibition of tryptase (unknown origin) at 100 uM relative to control
[10] = target: Coagulation factor XI (Homo sapiens) (UniProt P03951); assay: Inhibition of factor 11a (unknown origin) at 100 uM relative to control
[11] = target: Urokinase-type plasminogen activator (Homo sapiens) (UniProt P00749); assay: Inhibition of urokinase (unknown origin) at 100 uM relative to control
[12] = target: Prothrombin (Homo sapiens) (UniProt P00734); assay: Inhibition of factor 2a (unknown origin) at 100 uM relative to control

Sequence of Plasminogen (Homo sapiens) (P00747 97-580 limits assumed): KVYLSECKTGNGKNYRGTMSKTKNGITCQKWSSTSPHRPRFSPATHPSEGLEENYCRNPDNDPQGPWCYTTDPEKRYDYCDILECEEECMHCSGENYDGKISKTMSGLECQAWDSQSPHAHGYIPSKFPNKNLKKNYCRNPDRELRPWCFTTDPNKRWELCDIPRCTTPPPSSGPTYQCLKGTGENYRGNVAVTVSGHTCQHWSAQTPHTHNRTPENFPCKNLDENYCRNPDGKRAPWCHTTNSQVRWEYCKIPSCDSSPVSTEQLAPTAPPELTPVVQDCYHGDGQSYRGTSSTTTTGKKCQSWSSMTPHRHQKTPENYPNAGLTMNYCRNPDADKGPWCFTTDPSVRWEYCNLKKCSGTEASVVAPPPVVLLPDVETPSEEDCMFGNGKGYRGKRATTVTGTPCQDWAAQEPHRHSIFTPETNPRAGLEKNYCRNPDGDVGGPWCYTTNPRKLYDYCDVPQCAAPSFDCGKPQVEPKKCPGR
Sequence of Plasminogen (Homo sapiens) (P00747 581-810 limits assumed): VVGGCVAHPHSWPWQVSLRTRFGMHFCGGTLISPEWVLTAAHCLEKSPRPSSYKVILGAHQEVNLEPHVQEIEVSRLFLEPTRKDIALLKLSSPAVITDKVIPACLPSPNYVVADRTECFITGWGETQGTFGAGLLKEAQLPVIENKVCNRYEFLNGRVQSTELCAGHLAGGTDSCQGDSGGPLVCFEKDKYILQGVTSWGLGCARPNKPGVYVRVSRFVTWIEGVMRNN
Sequence of Plasma kallikrein (Homo sapiens) (P03952 20-390 limits assumed): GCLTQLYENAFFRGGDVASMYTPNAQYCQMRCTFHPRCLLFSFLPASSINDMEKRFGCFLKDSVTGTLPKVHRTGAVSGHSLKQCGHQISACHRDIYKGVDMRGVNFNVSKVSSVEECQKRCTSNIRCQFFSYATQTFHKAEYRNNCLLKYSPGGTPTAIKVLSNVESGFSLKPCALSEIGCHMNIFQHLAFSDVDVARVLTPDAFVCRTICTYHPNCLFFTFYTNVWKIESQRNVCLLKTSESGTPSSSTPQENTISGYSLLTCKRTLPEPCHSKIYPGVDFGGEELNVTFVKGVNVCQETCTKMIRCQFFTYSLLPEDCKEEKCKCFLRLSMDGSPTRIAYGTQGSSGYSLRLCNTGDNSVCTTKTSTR
Sequence of Plasma kallikrein (Homo sapiens) (P03952 391-638 limits assumed): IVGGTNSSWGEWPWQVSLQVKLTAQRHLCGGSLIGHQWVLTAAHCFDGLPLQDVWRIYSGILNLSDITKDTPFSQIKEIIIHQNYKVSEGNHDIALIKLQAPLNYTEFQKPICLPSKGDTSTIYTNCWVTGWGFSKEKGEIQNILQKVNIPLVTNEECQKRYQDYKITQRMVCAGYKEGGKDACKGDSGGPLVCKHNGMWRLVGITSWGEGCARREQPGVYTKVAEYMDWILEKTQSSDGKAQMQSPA
Sequence of Coagulation factor X (Homo sapiens) (P00742 41-179 limits assumed): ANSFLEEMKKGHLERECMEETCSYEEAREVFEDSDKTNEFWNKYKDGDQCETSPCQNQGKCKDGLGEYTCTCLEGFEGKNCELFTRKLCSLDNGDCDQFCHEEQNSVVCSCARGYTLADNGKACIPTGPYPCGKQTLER
Sequence of Coagulation factor X (Homo sapiens) (P00742 235-488 limits assumed): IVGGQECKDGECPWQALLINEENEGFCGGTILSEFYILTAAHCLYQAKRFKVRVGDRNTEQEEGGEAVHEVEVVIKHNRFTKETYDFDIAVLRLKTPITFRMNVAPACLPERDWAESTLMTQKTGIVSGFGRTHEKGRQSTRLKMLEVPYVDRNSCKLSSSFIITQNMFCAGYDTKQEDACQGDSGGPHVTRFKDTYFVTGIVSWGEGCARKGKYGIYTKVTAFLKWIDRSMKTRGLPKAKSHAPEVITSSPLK
Sequence of Coagulation factor XI (Homo sapiens) (P03951 19-387 limits assumed): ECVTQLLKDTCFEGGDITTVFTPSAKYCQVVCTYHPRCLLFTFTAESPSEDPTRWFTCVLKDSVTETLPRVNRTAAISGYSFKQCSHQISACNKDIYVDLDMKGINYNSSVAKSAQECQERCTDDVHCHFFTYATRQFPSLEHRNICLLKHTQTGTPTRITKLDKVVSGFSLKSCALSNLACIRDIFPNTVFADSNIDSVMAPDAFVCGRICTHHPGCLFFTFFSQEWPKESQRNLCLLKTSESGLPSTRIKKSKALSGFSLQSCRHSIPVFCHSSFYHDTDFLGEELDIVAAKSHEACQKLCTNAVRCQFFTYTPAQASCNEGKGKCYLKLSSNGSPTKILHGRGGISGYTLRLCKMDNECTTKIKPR
Sequence of Coagulation factor XI (Homo sapiens) (P03951 388-625 limits assumed): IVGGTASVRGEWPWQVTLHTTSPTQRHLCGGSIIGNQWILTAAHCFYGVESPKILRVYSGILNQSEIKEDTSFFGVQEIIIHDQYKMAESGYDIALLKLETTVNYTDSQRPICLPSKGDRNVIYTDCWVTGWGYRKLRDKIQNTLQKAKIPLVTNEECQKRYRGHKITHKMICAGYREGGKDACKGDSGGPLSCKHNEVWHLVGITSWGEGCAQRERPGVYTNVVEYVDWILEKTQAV
Sequence of Tissue-type plasminogen activator (Homo sapiens) (P00750 36-562 limits assumed): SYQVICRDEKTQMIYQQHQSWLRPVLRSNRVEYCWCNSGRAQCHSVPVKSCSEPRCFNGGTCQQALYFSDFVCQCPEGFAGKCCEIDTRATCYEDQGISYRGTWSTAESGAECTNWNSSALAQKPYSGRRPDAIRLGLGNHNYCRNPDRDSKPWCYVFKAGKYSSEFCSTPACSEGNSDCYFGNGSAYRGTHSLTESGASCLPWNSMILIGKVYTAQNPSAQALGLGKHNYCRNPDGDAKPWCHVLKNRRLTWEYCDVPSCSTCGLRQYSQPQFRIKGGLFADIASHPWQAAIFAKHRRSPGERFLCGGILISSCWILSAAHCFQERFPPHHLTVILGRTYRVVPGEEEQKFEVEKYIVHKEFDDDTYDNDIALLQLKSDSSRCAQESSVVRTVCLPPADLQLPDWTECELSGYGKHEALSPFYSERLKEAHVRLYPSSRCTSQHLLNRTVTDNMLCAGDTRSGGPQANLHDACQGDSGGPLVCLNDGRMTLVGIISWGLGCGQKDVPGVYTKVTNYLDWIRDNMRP

In the case of NCCCC[C@H](NS(N)(=O)=O)C(=O)O, the IC50 (Carboxypeptidase B2) is reported as 15 µM.
In the case of CC(=O)NCCCC[C@H](NS(=O)(=O)N[C@@H](CC1CCCCC1)C(=O)N[C@H]1C[C@H]2CC[C@]1(C)C2(C)C)C(=O)O, the IC50 (Carboxypeptidase B2) is reported as > 30 µM.
CC1(C)[C@@H]2CC[C@@]1(C)[C@@H](NC(=O)[C@H](CC1CCCCC1)NS(=O)(=O)N[C@@H](CCCCN)C(=O)O)C2 was tested, and the inhibition [1] was < 40%, the inhibition [2] was < 40% and the inhibition (Homo sapiens [3]) was < 40%. For the same compound, the inhibition [4] was < 40%, the inhibition [5] was < 40% and the inhibition [6] was < 40%. For the same compound, the inhibition [7] was < 40%, the inhibition [8] was < 40% and the inhibition (Homo sapiens [9]) was < 40%. The inhibition [10] was < 40%, the inhibition [11] was < 40% and the inhibition [12] was < 40%.
For CC(C)[C@H](NS(=O)(=O)N[C@@H](CCCCN)C(=O)O)C(=O)NC12CC3CC(CC(C3)C1)C2, the IC50 (Carboxypeptidase B2) was > 30 µM.
For CC1(C)[C@@H]2CC[C@@]1(C)[C@@H](NC(=O)[C@H](CC1CCCCC1)NS(=O)(=O)N[C@@H](CC1CCC(N)CC1)C(=O)O)C2 (some centres undefined), the IC50 (Carboxypeptidase B2) was > 30 µM.
CC1(C)C2CCC1(C)[C@@H](NC(=O)[C@H](CC1CCCCC1)NC(=O)N[C@@H](CCCCN)C(=O)O)C2 (some centres undefined) showed an IC50 (Carboxypeptidase B2) of 0.003 µM.
With CC1(C)[C@@H]2CC[C@@]1(C)[C@@H](NC(=O)[C@@H](NS(=O)(=O)N[C@@H](CCCCN)C(=O)O)C1CCCCC1)C2 the IC50 (Carboxypeptidase B2) was 47 µM.
In the case of NCCCC[C@H](NS(=O)(=O)N[C@H](C(=O)NC12CC3CC(CC(C3)C1)C2)c1ccccc1)C(=O)O, the IC50 (Carboxypeptidase B2) is reported as > 30 µM.
